{"source": "paper PMC3670040", "about": "“Structure of Lipid Kinase p110β/p85β Elucidates an Unusual SH2-Domain-Mediated Inhibitory Mechanism” (Molecular Cell, 2011)", "system": "human p110β", "assay": "Transcreener ADP formation, human p110β with icSH2 of human p85α, p85β, p55γ", "format": "biochemical", "conditions": "icSH2 from p85α, p85β or p55γ; 10 μM pY2; Figure 4A", "protocol": "Figure 4 cSH2 Is Important for p110β Inhibition In Vitro and in Cells (A) Kinase activity of human p110β and icSH2 wild-type constructs from three human regulatory subunits (p85α, p85β, and p55γ) in the absence and presence of 10 μM PDGFR pY2 (y axis as in Figure 1B). EC50s for wild-type and icSH2 tyrosine mutants, in the absence and presence of 10 μM PDGF pY2, are shown. (B) Western blots of HEK cells transiently expressing wild-type and mutant human p110β/p85α. The membrane was probed with antibodies against PKB, pPKB (pSer473), myc (p110β), FLAG (p85α), and actin. Bar graphs show mean ± SEM (n = 3) of PKB phosphorylation level normalized to wild-type p110β/p85α (WT). The position of the three mutations is mapped on the p110β/p85β structure. […]\nThe lipid kinase activity was determined using the Transcreener ADP2 FP Assay (BellBrook Labs, Madison, WI) according to manufacturer‟s specifications. This non-radioactive assay measures activity by quantitating the amount of ADP formed. The ADP formed by PI3K competes with fluorescent ADP tracer for binding to an anti-ADP antibody, thereby decreasing fluorescence polarization. […]", "note": "Square brackets hold non-standard residues; d marks the D form. Ends that are not written are not given here. pY = N[C@@H](Cc1ccc(OP(=O)(O)O)cc1)C(=O)O", "data": [{"substance": "ESDGG[pY]MDMSKDESID[pY]VPMLDMKGDIKYADIE [pY2, bis-phosphopeptide (PDGFR 735–767, with pY740 and pY751)]", "values": [{"measurement": "effect of pY2 on activity of human p110β bound to icSH2", "value": "significantly stimulated the activity"}]}]}
